{"source": "paper PMC9698483", "about": "“Berbamine Reduces Chloroquine-Induced Itch in Mice through Inhibition of MrgprX1” (International Journal of Molecular Sciences, 2022)", "key": {"[1]": {"biological_target": "T1, histamine H4 receptor (H4R) (Homo sapiens, UniProt Q9H3N8)", "T1 construct": "expressed in transfected cells; host or cells: HEK293T", "T1 sequence (Q9H3N8 whole entry, species assumed)": "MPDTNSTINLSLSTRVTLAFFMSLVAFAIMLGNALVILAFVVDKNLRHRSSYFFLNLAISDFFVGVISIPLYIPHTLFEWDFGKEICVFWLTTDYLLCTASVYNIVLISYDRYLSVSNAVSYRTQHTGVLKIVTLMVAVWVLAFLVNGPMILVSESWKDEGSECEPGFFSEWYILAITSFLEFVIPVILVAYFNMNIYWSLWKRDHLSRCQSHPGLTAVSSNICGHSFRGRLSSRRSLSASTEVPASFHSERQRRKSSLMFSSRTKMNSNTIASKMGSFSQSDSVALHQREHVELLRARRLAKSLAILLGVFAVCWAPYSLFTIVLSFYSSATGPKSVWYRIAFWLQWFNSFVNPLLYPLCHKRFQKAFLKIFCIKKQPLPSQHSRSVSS", "assay": "Histamine-induced activation of H4R in H4R-expressing HEK293T cells (calcium)", "type": "cell-based", "conditions": "30 μM compound, 10 min prior to 100 μM histamine", "method": "(§1) To investigate the effect of berbamine on other pruritogenic GPCRs, we observed the effect of berbamine on histamine H1 receptor (H1R), histamine H4 receptor (H4R), MrgprC11, MrgprX4, PAR2, and TGR5.\n(§2) Figure 3 Effects of berbamine on the activity of other pruritogenic GPCRs: (A,B) Effect of berbamine on histamine 1 receptor (H1R) and histamine 4 receptor (H4R). H1R- and H4R-expressing HEK293T cells were pretreated with 30 μM BBM for 10 min prior to 100 μM histamine treatment. […] (C) Effect of berbamine on PAR2. HT29 cells were pretreated with BBM for 10 min prior to 30 μM PAR2-AP treatment. […] (D) Effect of berbamine on MrgprC11. MrgprC11-expressing HEK293T cells were pretreated with BBM for 10 min prior to 100 μM […] treatment. (E) Effect of berbamine on MrgprX4. MrgprX4-expressing HEK293T cells were pretreated with BBM for 10 min prior to 80 μM DCA treatment. (F) Effect of berbamine on TGR5. TGR5 activity was measured using a YFP fluorescence quenching assay. CHO-K1 cells coexpressing TGR5 and a halide sensor YFP were pretreated with BBM and 80 μM DCA for 10 min prior to I^- treatment. Results were summarized as means ± S.E. (n = 6). NTC, nontransfected cells.\n(§3) Intracellular calcium levels were measured using a Fluo-4 NW calcium assay kit (Invitrogen, Carlsbad, CA) as per the manufacturer’s protocol in HEK293T and HT29 cells. […]"}, "[2]": {"biological_target": "T2, MrgprC11 (Mus musculus, UniProt Q8CIP3)", "T2 construct": "expressed in transfected cells; host or cells: HEK293T", "T2 sequence (Q8CIP3 1-322)": "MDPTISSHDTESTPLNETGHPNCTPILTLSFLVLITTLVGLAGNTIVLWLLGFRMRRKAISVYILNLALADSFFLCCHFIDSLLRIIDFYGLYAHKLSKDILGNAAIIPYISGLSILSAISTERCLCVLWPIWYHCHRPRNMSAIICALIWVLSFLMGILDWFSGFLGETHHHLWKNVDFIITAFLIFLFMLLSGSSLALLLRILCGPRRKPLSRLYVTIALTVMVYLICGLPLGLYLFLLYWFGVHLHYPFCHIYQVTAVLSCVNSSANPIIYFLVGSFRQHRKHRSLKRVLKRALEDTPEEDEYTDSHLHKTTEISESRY", "assay": "Activation of MrgprC11 in MrgprC11-expressing HEK293T cells (calcium)", "type": "cell-based", "method": "as §1, §2, §3"}, "[3]": {"biological_target": "T3, MrgprX4 (Homo sapiens, UniProt Q96LA9)", "T3 construct": "expressed in transfected cells; host or cells: HEK293T", "T3 sequence (Q96LA9 whole entry)": "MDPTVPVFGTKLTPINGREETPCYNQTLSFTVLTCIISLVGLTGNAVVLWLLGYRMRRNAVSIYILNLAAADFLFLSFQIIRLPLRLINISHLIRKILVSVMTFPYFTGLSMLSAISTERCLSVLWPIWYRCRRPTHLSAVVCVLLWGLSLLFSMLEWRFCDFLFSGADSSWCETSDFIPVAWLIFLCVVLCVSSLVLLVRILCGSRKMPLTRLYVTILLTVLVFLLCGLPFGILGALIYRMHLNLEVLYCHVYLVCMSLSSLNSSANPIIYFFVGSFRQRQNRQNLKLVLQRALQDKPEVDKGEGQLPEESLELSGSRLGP", "assay": "DCA-induced activation of MrgprX4 in MrgprX4-expressing HEK293T cells (calcium)", "type": "cell-based", "conditions": "30 μM, 10 min prior to 80 μM DCA", "method": "as §1, §2, §3"}, "[4]": {"biological_target": "T4, MrgprA3 (Mus musculus, UniProt Q91WW3)", "T4 construct": "expressed in transfected cells; host or cells: HEK293T", "T4 sequence (Q91WW3 1-302)": "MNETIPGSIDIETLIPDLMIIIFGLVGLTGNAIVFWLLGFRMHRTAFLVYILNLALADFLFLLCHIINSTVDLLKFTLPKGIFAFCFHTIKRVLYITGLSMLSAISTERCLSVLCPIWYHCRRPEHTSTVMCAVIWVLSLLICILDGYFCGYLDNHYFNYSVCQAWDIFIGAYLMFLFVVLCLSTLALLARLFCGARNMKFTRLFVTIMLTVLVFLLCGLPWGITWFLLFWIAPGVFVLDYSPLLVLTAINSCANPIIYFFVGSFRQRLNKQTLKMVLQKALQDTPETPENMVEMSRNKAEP", "assay": "Intracellular calcium measurement in HEK293T cells expressing mouse MrgprA3", "type": "cell-based", "conditions": "pretreated 10 min prior to 300 μM CQ; read-out: IC50 of inhibition of CQ-induced MrgprA3 activation", "method": "MRGPRA3 and MRGPRC11 are mouse orthologs of human MRGPRX1, and MrgprA3 is also activated by CQ, resulting in CQ-induced pruritus. To investigate the inhibitory effect of berbamine on MrgprA3, we established HEK293T cells overexpressing MrgprA3. […] We further investigated whether berbamine inhibited CQ-induced ERK1/2 phosphorylation in HEK-MrgprA3 cells. Strong and significant ERK1/2 phosphorylation was observed following CQ application, and ERK1/2 phosphorylation peaked 5 min after CQ treatment (Figure 6A,B).\nFigure 5 Effect of berbamine on CQ-induced activation of MrgprA3: (A) Intracellular calcium levels were measured in HEK293T cells expressing mouse MrgprA3. Cells were treated with indicated concentrations of CQ. (B) Summary of dose–response (mean ± S.E., n = 6). (C) Cells were pretreated with indicated concentrations of berbamine for 10 min prior to 300 μM CQ treatment. (D) Summary of dose-response (mean ± S.E., n = 6). (E) Representative traces of intracellular calcium responses to BAM8−22 in HEK293T cells expressing MrgprC11. […]\nIntracellular calcium levels were measured using a Fluo-4 NW calcium assay kit (Invitrogen, Carlsbad, CA) as per the manufacturer’s protocol in HEK293T and HT29 cells. […] After 1 h of incubation, Fluo-4 fluorescence was recorded with a FLUOstar Omega microplate reader equipped with syringe pumps and custom Fluo-4 excitation/emission filters (485/538 nm). […]"}, "[5]": {"system": "CQ-sensitive strain of P. falciparum", "design": "method as in doi:10.1002/ddr.430300405", "conditions": "in vitro; read-out: IC50 antimalaria effect, CQ-sensitive strain; cited from earlier work"}}, "data": [{"smiles": "COc1cc2c3cc1Oc1c(OC)c(OC)cc4c1[C@@H](Cc1ccc(O)c(c1)Oc1ccc(cc1)C[C@@H]3N(C)CC2)N(C)CC4", "note": "[berbamine]", "values": [{"measurement": "effect on histamine-induced activation of H4R", "setting": "[1]", "value": "did not affect"}, {"measurement": "effect on PAR2-AP-induced activation of MrgprC11", "setting": "[2]; 30 μM, 10 min prior to 100 μM PAR2-AP", "value": "did not affect"}, {"measurement": "inhibitory effect on the activation of MrgprC11 by BAM8-22", "setting": "[2]; concentrations up to 30 μM, 500 nM BAM8-22", "value": "minimal inhibitory effect"}, {"measurement": "effect on DCA-induced activation of MrgprX4", "setting": "[3]", "value": "did not alter"}, {"measurement": "IC50", "setting": "[4]", "value": 2900, "unit": "nM"}, {"measurement": "IC50", "setting": "[5]", "value": "603 ± 47", "unit": "nM"}]}]}
